According to ChEMBL document CHEMBL1201862, “PubChem BioAssay data set” (2004):
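96-well plates; 48 h exposure; 5 concentrations. Endpoints by linear interpolation between flanking doses. Not reached: highest tested concentration assigned. GI50 is the concentration that inhibits growth by half.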 The source made the active and inactive calls. No stated cut-off is given here; in the data, active = GI50 up to about 1.1 µM and inactive = higher.

How the values were obtained:
Experiment in all cases: inhibition of tumour cell growth, NCI panel, 48 h
SR = tested on: SR
RXF 393 = tested on: RXF 393
UACC-62 = tested on: UACC-62
NCI-H460 = tested on: NCI-H460
SF-295 = tested on: SF-295
NCI-H226 = tested on: NCI-H226
KM12 = tested on: KM12
HOP-92 = tested on: HOP-92
NCI-H23 = tested on: NCI-H23
786-0 = tested on: 786-0
HCT-15 = tested on: HCT-15
K562 = tested on: K562
SK-MEL-28 = tested on: SK-MEL-28
U-251 = tested on: U-251
CCRF-CEM = tested on: CCRF-CEM
TK-10 = tested on: TK-10
SK-OV-3 = tested on: SK-OV-3
A498 = tested on: A498
HOP-62 = tested on: HOP-62

Measured: GI50

CN1CCN(C(=S)N(C)C(=O)c2ccc(Cl)cc2)CC1
inactive: SR > 10 µM | RXF 393 > 100 µM | UACC-62 > 100 µM | NCI-H460 > 100 µM | SF-295 > 100 µM | NCI-H226 > 100 µM | KM12 > 100 µM | HOP-92 > 100 µM | NCI-H23 > 100 µM | 786-0 > 100 µM | K562 > 100 µM | SK-MEL-28 > 100 µM | U-251 > 100 µM | CCRF-CEM > 100 µM | TK-10 > 100 µM
> 100 µM: HCT-15

COc1cc2c(cc1O)C=NCC2
> 100 µM: HCT-15
inactive: UACC-62 > 100 µM | NCI-H460 > 100 µM | SF-295 > 100 µM | NCI-H226 > 100 µM | KM12 > 100 µM | SK-OV-3 > 100 µM | HOP-92 > 100 µM | A498 94.2 µM | NCI-H23 > 100 µM | 786-0 > 100 µM | K562 > 100 µM | SK-MEL-28 > 100 µM | U-251 > 100 µM | CCRF-CEM 50 µM | TK-10 > 100 µM

Cc1cnc(Cl)nc1C(C#N)c1nc2ccccc2s1 (stereo not given)
inactive: RXF 393 17.2 µM | NCI-H460 30.7 µM | SF-295 19.8 µM | NCI-H226 14.7 µM | KM12 33.8 µM | SK-OV-3 18 µM | HOP-62 22.2 µM | HOP-92 7.33 µM | A498 25.2 µM | NCI-H23 7 µM | 786-0 15.7 µM | SK-MEL-28 69 µM | U-251 20.1 µM | TK-10 24.8 µM
16.6 µM: HCT-15

CC1=C(C(=O)Nc2cc(F)c(F)cc2F)C(c2cccc([N+](=O)[O-])c2)C(C(=O)Nc2ccccc2C(F)(F)F)=C(C)N1 (stereo not given)
inactive: RXF 393 13.9 µM | NCI-H460 18.5 µM | SF-295 23.4 µM | NCI-H226 21.3 µM | KM12 21.3 µM | SK-OV-3 23.2 µM | HOP-62 22.4 µM | HOP-92 10.9 µM | A498 11.2 µM | NCI-H23 16.6 µM | 786-0 17.3 µM | K562 14.4 µM | SK-MEL-28 22 µM | U-251 16.9 µM | CCRF-CEM 17.5 µM | TK-10 31.8 µM

CCCCCCCCCCCCCCCc1nnc(SCC(=O)O)[nH]1
inactive: SR 60 µM | RXF 393 > 100 µM | UACC-62 42.2 µM | NCI-H460 > 100 µM | SF-295 40 µM | KM12 48.3 µM | SK-OV-3 45.4 µM | HOP-62 > 100 µM | HOP-92 32.1 µM | NCI-H23 > 100 µM | 786-0 18.5 µM | K562 16.4 µM | SK-MEL-28 80.7 µM | U-251 26.4 µM | CCRF-CEM 24.2 µM | TK-10 13.2 µM
31.6 µM: HCT-15

Nc1cccc(S(=O)(=O)NCC(=O)O)c1
> 100 µM: HCT-15
inactive: RXF 393 > 100 µM | UACC-62 > 100 µM | NCI-H460 > 100 µM | SF-295 > 100 µM | NCI-H226 > 100 µM | KM12 > 100 µM | SK-OV-3 > 100 µM | HOP-62 > 100 µM | NCI-H23 > 100 µM | 786-0 > 100 µM | K562 > 100 µM | SK-MEL-28 > 100 µM | U-251 > 100 µM | CCRF-CEM > 100 µM | TK-10 > 100 µM

COc1cccc(NC(=O)CSc2nnc(-c3ccc(NC(C)=O)cc3)o2)c1
> 100 µM: HCT-15
inactive: SR 90.2 µM | RXF 393 > 100 µM | UACC-62 > 100 µM | NCI-H460 > 100 µM | SF-295 > 100 µM | NCI-H226 > 100 µM | KM12 49.4 µM | SK-OV-3 > 100 µM | HOP-62 > 100 µM | HOP-92 > 100 µM | NCI-H23 > 100 µM | 786-0 > 100 µM | K562 > 100 µM | SK-MEL-28 > 100 µM | U-251 > 100 µM | CCRF-CEM 79.1 µM | TK-10 > 100 µM

CCOP1(=O)C=CC(Cl)=C(C)C1 (stereo not given)
inactive: RXF 393 4.27 µM | UACC-62 15 µM | NCI-H460 27.4 µM | SF-295 35.2 µM | NCI-H226 > 100 µM | KM12 18.3 µM | SK-OV-3 48 µM | HOP-62 27.2 µM | HOP-92 16.9 µM | A498 29.2 µM | NCI-H23 13 µM | 786-0 15.6 µM | K562 5.06 µM | SK-MEL-28 16.2 µM | U-251 24.4 µM | CCRF-CEM 3.13 µM | TK-10 19.5 µM
13.7 µM: HCT-15

Cc1ccc(NC(=O)CC/C(CC(=O)c2ccc(Cl)cc2)=N\NC(=O)C(=O)NN)cc1C
> 100 µM: HCT-15
inactive: SR > 100 µM | RXF 393 > 100 µM | UACC-62 > 100 µM | NCI-H460 > 100 µM | SF-295 > 100 µM | NCI-H226 > 100 µM | KM12 > 100 µM | SK-OV-3 > 100 µM | HOP-62 > 100 µM | A498 > 100 µM | NCI-H23 > 100 µM | 786-0 > 100 µM | K562 > 100 µM | SK-MEL-28 > 100 µM | U-251 > 100 µM | CCRF-CEM > 100 µM | TK-10 > 100 µM
